Two compounds from patent EP2065039A1, “Selective inhibition of Polo-like kinase 1” (Max-Planck-Gesellschaft zur Förderung der Wissenschaften …, priority 2007, dated 2009) can be followed below.

Where two headings read alike, the source gives them in different places.

One data set deals with T1, Plk2 PBD (Homo sapiens, UniProt Q9NYY3).
T1 construct: human Plk2 amino acids 355-685; made in house; host or cells: E. coli Rosetta BL21 DE3
T1 sequence (Q9NYY3 355-685): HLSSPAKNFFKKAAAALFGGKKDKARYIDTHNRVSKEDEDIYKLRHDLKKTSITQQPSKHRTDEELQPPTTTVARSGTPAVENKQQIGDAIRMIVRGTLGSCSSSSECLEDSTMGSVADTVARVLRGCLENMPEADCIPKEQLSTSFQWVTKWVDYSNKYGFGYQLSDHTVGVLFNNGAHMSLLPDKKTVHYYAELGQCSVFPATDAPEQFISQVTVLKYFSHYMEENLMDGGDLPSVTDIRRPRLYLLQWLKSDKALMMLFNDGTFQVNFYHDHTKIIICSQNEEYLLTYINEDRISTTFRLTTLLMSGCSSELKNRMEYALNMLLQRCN
Put plainly: Fluorescence polarization specificity assay, Plk2 PBD. The data set is classed as binding. The following applies: Plk2 PBD 130 nM; incubation with inhibitor 1 hr at 22 °C prior to addition of fluorophore-labeled peptide; read-out: apparent IC50. The text has this:
(§1) DNA sequences coding for human Plk1 amino acids 326-603, human Plk2 amino acids 355-685, and human Plk3 amino acids 335-646 comprising the respective polo-box domains were amplified by PCR from plasmid DNA (Plk1) or placenta cDNA (Plk2, Plk3) and cloned into a modified pET28a (Plk1) or a modified pQE70 vector (Plk2 and Plk3). Similarly, nucleotides coding for the […] (FHA) of the kinase Chk2 (amino acids 1-225) and the WW domain of the proline isomerase Pin1 (amino acids 1-162) were amplified by PCR from HeLa S3 and placenta cDNA, respectively, and cloned into a modified pET28a vector. The design of expression plasmids coding for STAT1, STAT3, STATSb, and Lck has been described before and belongs to the knowledge of a skilled person. […] Wild-type and mutant PBD sequences were cloned into a modified pCS2 mammalian expression vector carrying a myc-tag. […]
(§2) Diverse Chemical libraries consisting of 22461 small molecules were tested in a fluorescence polarization assay which analyzes binding between 5-carboxyfluorescein-GPMQST(P03H2)PLNG-OH (final concentration: 10 nM) and the Plk1 polo-box domain (final concentration: 65 nM). […]
Background: In fluorescence polarisation assays a small probe gives low polarisation when free and higher when bound to something large.

The next data set concerns the target T2, Chk2 FHA domain (Homo sapiens, UniProt O96017).
T2 construct: kinase Chk2 (amino acids 1-225); made in house; host or cells: E. coli Rosetta BL21 DE3
As to the kind of experiment: Fluorescence polarization specificity assay, Chk2 FHA domain. The data set is classed as binding. The following applies: Chk2 240 nM; incubation with inhibitor 1 hr at 22 °C prior to addition of fluorophore-labeled peptide; read-out: apparent IC50.
Source text: as §1, §2

For the next data set, the target named is T3, Pin1 WW domain (Homo sapiens, UniProt Q13526).
T3 construct: proline isomerase Pin1 (amino acids 1-162); made in house; host or cells: E. coli Rosetta BL21 DE3
T3 sequence (Q13526 1-162): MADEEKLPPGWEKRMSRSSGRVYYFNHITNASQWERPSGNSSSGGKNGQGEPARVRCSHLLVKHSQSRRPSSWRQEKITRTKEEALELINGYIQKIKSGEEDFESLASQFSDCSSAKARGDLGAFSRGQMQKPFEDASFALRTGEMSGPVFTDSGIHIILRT
As to the kind of experiment: Fluorescence polarization specificity assay, Pin1 WW domain. The data set is classed as binding. The following applies: Pin1 1000 nM; incubation with inhibitor 1 hr at 22 °C prior to addition of fluorophore-labeled peptide; read-out: apparent IC50.
Source text: as §1, §2

A further data set deals with STAT1 SH2 domain (Homo sapiens, UniProt P42224). Put plainly: Fluorescence polarization specificity assay, STAT1 SH2 domain. The class given is binding.
STAT1 SH2 domain, sequence (P42224 132-713): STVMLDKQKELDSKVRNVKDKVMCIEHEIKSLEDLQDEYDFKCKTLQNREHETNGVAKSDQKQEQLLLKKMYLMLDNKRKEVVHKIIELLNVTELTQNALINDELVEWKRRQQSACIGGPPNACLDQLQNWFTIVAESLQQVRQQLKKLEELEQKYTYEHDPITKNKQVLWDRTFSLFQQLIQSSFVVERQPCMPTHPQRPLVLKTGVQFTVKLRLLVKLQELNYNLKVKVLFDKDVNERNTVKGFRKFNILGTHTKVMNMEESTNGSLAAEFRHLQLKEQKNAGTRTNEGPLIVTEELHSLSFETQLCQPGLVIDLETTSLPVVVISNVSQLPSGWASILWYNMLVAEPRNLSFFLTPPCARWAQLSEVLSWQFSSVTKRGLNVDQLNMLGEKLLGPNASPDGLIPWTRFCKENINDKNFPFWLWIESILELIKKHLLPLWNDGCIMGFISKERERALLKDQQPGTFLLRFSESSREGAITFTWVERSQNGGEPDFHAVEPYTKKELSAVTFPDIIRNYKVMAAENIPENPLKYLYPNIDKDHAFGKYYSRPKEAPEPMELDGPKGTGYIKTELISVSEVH
Source text: as §1, §2

The target in the next data set is T4, STAT3 SH2 domain (Homo sapiens, UniProt P40763).
T4 construct: made in house
T4 sequence (P40763 127-722 limits assumed): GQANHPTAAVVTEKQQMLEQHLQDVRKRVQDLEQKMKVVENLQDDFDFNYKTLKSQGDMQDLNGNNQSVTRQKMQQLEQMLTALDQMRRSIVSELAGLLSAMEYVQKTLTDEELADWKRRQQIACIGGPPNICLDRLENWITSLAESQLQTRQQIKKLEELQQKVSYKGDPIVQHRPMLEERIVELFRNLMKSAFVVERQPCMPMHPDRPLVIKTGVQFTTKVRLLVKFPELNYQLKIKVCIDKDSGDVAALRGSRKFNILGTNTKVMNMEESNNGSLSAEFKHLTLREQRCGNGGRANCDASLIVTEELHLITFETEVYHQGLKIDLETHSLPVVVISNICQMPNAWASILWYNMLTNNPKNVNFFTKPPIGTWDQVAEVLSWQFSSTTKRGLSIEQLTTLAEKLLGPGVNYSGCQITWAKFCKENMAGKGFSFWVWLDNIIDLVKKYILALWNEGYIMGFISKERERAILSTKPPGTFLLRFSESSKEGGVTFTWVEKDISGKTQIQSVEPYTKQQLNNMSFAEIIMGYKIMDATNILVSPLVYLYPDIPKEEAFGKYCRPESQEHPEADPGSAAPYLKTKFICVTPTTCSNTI
As to the kind of experiment: Fluorescence polarization specificity assay, STAT3 SH2 domain. The class given is binding. The following applies: STAT3 160 nM; incubation with inhibitor 1 hr at 22 °C prior to addition of fluorophore-labeled peptide; read-out: apparent IC50.
Source text: as §1, §2

Another data set deals with T5, STAT5 SH2 domain (Homo sapiens, UniProt P51692).
T5 construct: made in house
T5 sequence (P51692 136-703 limits assumed): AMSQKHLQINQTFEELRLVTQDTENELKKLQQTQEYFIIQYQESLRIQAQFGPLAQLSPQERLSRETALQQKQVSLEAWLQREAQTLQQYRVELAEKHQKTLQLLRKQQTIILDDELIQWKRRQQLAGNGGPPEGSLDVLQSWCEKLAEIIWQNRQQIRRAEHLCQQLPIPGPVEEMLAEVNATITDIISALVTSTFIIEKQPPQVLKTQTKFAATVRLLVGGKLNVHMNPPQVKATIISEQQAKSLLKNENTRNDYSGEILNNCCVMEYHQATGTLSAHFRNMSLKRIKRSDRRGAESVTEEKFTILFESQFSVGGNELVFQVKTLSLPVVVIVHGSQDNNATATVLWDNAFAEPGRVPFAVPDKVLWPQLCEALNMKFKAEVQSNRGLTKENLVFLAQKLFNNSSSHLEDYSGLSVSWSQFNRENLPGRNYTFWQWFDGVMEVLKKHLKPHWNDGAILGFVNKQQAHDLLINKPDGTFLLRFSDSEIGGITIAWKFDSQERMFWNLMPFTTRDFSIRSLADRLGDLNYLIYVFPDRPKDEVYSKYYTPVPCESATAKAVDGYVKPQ
As to the kind of experiment: Fluorescence polarization specificity assay, STAT5 SH2 domain. The class given is binding. The following applies: STAT5b 110 nM, incubation with inhibitor 1 hr at 22 °C prior to addition of fluorophore-labeled peptide, read-out: apparent IC50.
Source text: as §1, §2

Another data set concerns the target Lck SH2 domain (Homo sapiens, UniProt P06239). As to the kind of experiment: Fluorescence polarization specificity assay, Lck SH2 domain. The data set is classed as binding.
Source text: as §1, §2

A further data set relates to HeLa cells. As to the kind of experiment: Mitotic arrest / cell cycle analysis in synchronized HeLa cells (Western blot, flow cytometry). The data set is classed as cell-based. The following applies: for mitotic arrest in HeLa cells: HeLa cells synchronized by thymidine block, released into medium containing compound, Figs. 5A-5C. The text has this:
Figure 1A/B Comparative IC50 inhibition curves with preferred compounds [1] (poloxin) and [14] (thymoquinone, TQ) versus Plk1, Plk2, Plk3, Chk2, Pin1, Stat1, Stat3, Stat5 and Lck. Figure 2 Cellular effects of poloxin and thymoquinone (TQ): Mitotic indices of HeLa cells 14 hrs after release from G1/S block. Figure 3 Distribution of mitotic phases and chromosome congression defects within the metaphase population in the presence of poloxin and thymoquinone (TQ). […]. […] Unsynchronized cells (control), cells synchronized with nocodazol (Noc) or thymidine (Thym), or cells released from thymidine block in the medium containing only DMSO (DMSO) were analyzed for comparison. Figure 5B Analysis of cell cycle distribution by fluorescence-activated flow cytometry. Cells were treated as in 5A. A representative example is shown. Figure 5C Quantification of the cell cycle analysis as shown in 5B (n=3). […]. […] Figure 6B Overexpression of PBD wild-type (wt), but not of the triple mutant PBD FAA, induces mitotic arrest in HeLa cells.
HeLa cells were maintained in Dulbecco's Modified Eagle-Medium (High Glucose) supplemented with 2 mM L-glutamine, 1 mM sodium pyruvate, 10% foetal calf serum, 100 U/mL penicillin, and 100 µg/mL streptomycin (GIBCO and PAA). For the Western blot analysis Fig. 5A, HeLa cells were arrested at the G1/S boundary by thymidine block, and released into thymidine-free medium containing the indicated concentration of compounds at a final DMSO concentration of 0.5%. After 7 hours, medium was replaced with fresh medium which also contained the indicated concentration of compound. […]
For the determination of mitotic indices shown in Fig. 6A, the number of mitotic cells within a population of 200-300 cells was counted. For the determination of the mitotic phase distribution shown in Fig. 6B, populations of approximately 50 mitotic cells were analyzed. […] The DNA content of 30000 cells was determined with a FACScan flow cytometer (BD Biosciences). The data were analyzed with cell cycle analysis Software MODFIT LT 2.0 (Verity Software House). […]
For orientation: A western blot detects proteins with antibodies after separation by electrophoresis.

Another data set addresses T6, Plk3 PBD (Homo sapiens, UniProt Q9H4B4).
T6 construct: human Plk3 amino acids 335-646; made in house; host or cells: E. coli Rosetta BL21 DE3
T6 sequence (Q9H4B4 335-646): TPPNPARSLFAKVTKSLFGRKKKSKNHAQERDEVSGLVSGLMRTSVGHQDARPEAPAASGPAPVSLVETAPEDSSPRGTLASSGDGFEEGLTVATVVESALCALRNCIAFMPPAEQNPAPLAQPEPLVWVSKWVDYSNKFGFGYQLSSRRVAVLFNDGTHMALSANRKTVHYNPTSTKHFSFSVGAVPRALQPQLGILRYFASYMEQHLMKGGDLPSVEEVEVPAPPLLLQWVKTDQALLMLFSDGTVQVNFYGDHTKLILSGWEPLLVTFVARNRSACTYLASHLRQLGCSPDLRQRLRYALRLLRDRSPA
As to the kind of experiment: Fluorescence polarization specificity assay, Plk3 PBD. The data set is classed as binding. The following applies: Plk3 PBD 1875 nM; incubation with inhibitor 1 hr at 22 °C prior to addition of fluorophore-labeled peptide; read-out: apparent IC50.

T2 sequence (O96017 1-225): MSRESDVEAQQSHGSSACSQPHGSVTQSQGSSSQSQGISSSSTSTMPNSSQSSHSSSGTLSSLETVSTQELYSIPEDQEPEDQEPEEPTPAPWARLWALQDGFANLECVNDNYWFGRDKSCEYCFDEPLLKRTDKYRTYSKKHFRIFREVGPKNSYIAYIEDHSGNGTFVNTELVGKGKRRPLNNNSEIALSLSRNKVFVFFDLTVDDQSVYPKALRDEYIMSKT
Lck SH2 domain, sequence (P06239 127-224): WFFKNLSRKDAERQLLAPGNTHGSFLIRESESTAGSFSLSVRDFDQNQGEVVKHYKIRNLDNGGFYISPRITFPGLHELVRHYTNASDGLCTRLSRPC
Experimental for Plk3 PBD: Purified proteins were aliquoted, snap-frozen in liquid nitrogen, and stored at -80°C before use. Binding curve experiments were done for each protein batch before inhibition experiments were started.
The final concentration of buffer components used was: 10 mM Tris, pH 8.0, 50 mM NaCl, 1 mM EDTA, 0.1 % Nonidet P-40, and 10% DMSO. The Plk1 PBD was incubated with compounds for 60 min prior to addition of the fluoropeptide. Screening was performed at room temperature. The following fluorophore-labeled peptides were used for specificity assays: • Plk2: 5-carboxyfluorescein-GPMQTST(PO3H2)PKNG-OH; • Plk3: 5-carboxyfluorescein-GPLATST(PO3H2)PKNG-OH; • Chk2: 5-carboxyfluorescein-GHFDT(PO3H2)YLIRR-OH; • Pin 1: 5-carboxyfluorescein-GWFYS(PO3H2)PRLKK-OH; • STAT1: 5-carboxyfluorescein-GY(PO3H2)DKPHVL-OH; • STAT3: 5-carboxyfluorescein-GY(PO3H2)LPQTV-NH2; • STAT5b: 5-carboxyfluorescein-GY(PO3H2)L VLDKW-OH;Lck:5-carboxyfluorescein-GY(P03H2)EEIP-OH.
Fluorescein-labeled peptides were >95% pure. […] Inhibition curves were fitted using SigmaPlot (SPSS Science Software GmbH).

Broadly, the IC50 is the midpoint of a concentration-inhibition curve. For `CC1=CC(=O)C(C(C)C)=CC1=NOC(=O)c1ccccc1C` [Poloxin], the half-inhibitory concentration (IC50) was 18.7 ± 1.8 µM on Plk2 PBD; greater than 330 µM on Chk2 FHA domain; greater than 215 µM on Pin1 WW domain; greater than 555 µM on STAT1 SH2 domain (STAT1 120 nM, incubation with inhibitor 1 hr at 22 °C prior to addition of fluorophore-labeled peptide, read-out: apparent IC50); greater than 285 µM on STAT3 SH2 domain; greater than 1 mM at STAT5 SH2 domain (value in mM). The IC50 at Lck SH2 domain (Lck 40 nM, incubation with inhibitor 1 hr at 22 °C prior to addition of fluorophore-labeled peptide, read-out: apparent IC50) is greater than 5000 µM. Further, in the data set with HeLa cells, the “mitotic arrest in HeLa cells” value is “induce mitotic arrest”.

With `CC1=CC(=O)C(C(C)C)=CC1=O` [Thymoquinone, thymoquinone], the half-inhibitory concentration (IC50) was 1.9 ± 0.1 µM on Plk2 PBD; 22.4 ± 0.8 µM at Plk3 PBD; 3.9 ± 0.6 µM on Chk2 FHA domain; 20.4 ± 0.9 µM on Pin1 WW domain; greater than 5000 µM on STAT1 SH2 domain; 10.9 ± 0.2 µM on STAT3 SH2 domain. The 50% inhibitory concentration (IC50) is greater than 0.24 mM at STAT5 SH2 domain and greater than 5000 µM on Lck SH2 domain. The “toxic side effects in cell cycle analysis” value in the data set with HeLa cells (25 µM, HeLa cells, flow cytometry, quantification of cell cycle profile unfeasible (Fig. 5C)) is “toxic side effects”. Moreover, the “mitotic arrest in HeLa cells” value in the data set with HeLa cells is “induce mitotic arrest”.
